US8394929B2, “Nogo receptor-mediated blockade of axonal growth” (Yale University, priority 2000, dated 2013)
Entries after “also recorded” stand apart in the source; their conditions may differ. Where two headings read alike, the source gives them in different places.

Experiments:
[1] = biological target: chick E12 dorsal root ganglion neurons; experiment: AP-Nogo binding to chick dorsal root ganglion neurons
From the text: (a) is a photograph of a gel and an immunoblot where the His-AP-Nogo (66 amino acid) protein was expressed in HEK293T cells, and purified from conditioned medium on a Nickel-containing resin via the His tag. Purified protein was subjected to SDS-PAGE and stained for total protein with CBB or immunoblotted with anti-Nogo antibodies (anti-Nogo). Molecular weight markers of 200, 116, 97, 65 and 45 kDa are shown at left, and the migration of AP-Nogo at right. (b) is a photograph of dissociated chick E12 dorsal root ganglion neurons that were incubated with 10 nM AP-Nogo or 10 nM AP-Nogo+160 nM GST-Nogo for sixty minutes at 23° C. The cells were washed, fixed and incubated at 60° C. in order to inactivate endogenous AP. Bound AP-Nogo was detected by incubation with nitro blue tetrazolium. Note the intense neuronal staining by AP-Nogo that is displaced by unlabeled ligand. (c) is a graph displaying experimental data where the potency of AP-Nogo and GST-Nogo in E12 chick dorsal root ganglion growth cone collapse assays was assessed as described in the Example section. The EC50 of AP-Nogo was determined to be 1 nM or less. The means±s.e.m. calculated from five to eight determinations are illustrated. (d) is a graph displaying experimental data where the binding of 10 nM AP-Nogo to chick E12 dorsal root ganglion neurons was assessed alone, or in the presence of 100 nM GST-Nogo or in the presence of 4 μM Pep2, which was quantified from experiments as in (b) by the method described in the Example section. The means±s.e.m. calculated from eight determinations are shown. (e) is a graph displaying experimental data where AP-Nogo binding to dorsal root ganglion neurons was measured as a function of AP-Nogo concentration. This is one of six experiments with similar results. (f) is a graph summarizing the data from (e) replotted for Scatchard analysis. The apparent Kd for AP-Nogo binding to E12 chick dorsal root ganglion neurons is 3 nM. […]

[2] = test system: CNS myelin induced neurite outgrowth inhibition; experiment: Blockade of CNS myelin induced neurite outgrowth inhibition in chick DRG neurons; type: cell-based
Procedure: To determine the antagonistic activity of Peptide 140 against CNS myelin, the above synthetic peptide was added approximately 10 min before application of CNS myelin. 30 min later, cultures were fixed and growth cone collapse was assessed following staining with rhodamine-phalloidin. For neurite outgrowth assays, plastic chamber slide were coated with 100 μg ml^−1 poly-L-lysine, washed, and dried. 3 μl drops of PBS containing CNS myelin were spotted and dried. Slides were then rinsed and coated with 10 μg ml fs24^−1 laminin before addition of dissociated E12 chick DRGs. Peptide 140, or the scrambled version of Peptide 140, was added at the time of cell plating. Cultures were grown for 5-7 h after which neurite outgrowth was assessed.
Although the role of the GPI anchor may be to regulate NgR cellular compartmentalization, another possible role for the GPI linkage is to provide a NgR cleavage site. Cleaving NgR could serve to affect hNogo-A (1055-1120) signaling by rendering a neuron insensitive to hNogo-A (1055-1120) and by releasing soluble NgR that could then act on adjacent cells to modulate hNogo-A (1055-1120) signaling. To determine if soluble mNgR modulates hNogo-A (1055-1120)-dependent inhibition, a soluble mNgR was generated by inserting a truncated cDNA encoding mNgR residues 1-348 in frame with a myc-His carboxy tag into pcDNA3.1. The resulting plasmid expressing mNgREcto was transfected into HEK293T cells, and conditioned media containing mNgREcto protein was collected. To test the effect of mNgREcto on Nogo signaling, E13 dissociated DRGs were plated in the presence of hNogo-A (1055-1120) or myelin. The inhibitors were presented in either soluble or substrate-bound forms. For neurite outgrowth assays on hNogo-A (1055-1120) or myelin substrates, Permanox chamber slides were coated with 100μ, fs24 g ml^−1 poly-L-Lysine, washed, and then 3-μl drops of phosphate-buffered saline (hereinafter “PBS”) containing 0, 10, 50, or 150 ng of GST-hNogo-A (1055-1120) or myelin were spotted and dried. GST-hNogo-A (1055-1120) and myelin were prepared as previously described (GrandPre et al., supra; Fournier et al., J. Cell Biol. 149:411-421, 2000). After three PBS washes, slides were coated with 10 μg ml^−1 laminin. Laminin was then aspirated and dissociated E13 chick DRG neurons were added. After 6-8 hr of outgrowth, cultures were fixed and neurite outgrowth lengths were assessed. For blockade experiments with NgREcto, spots were incubated with HEK293T cell conditioned media or NgREcto-transfected-HEK293T cell conditioned media following for 1 hr following the laminin coating step and before the addition of dissociated neurons. […] Thus, soluble fragments of NgR might serve physiologically or pharmacologically to reduce GST-hNogo-A (1055-1120) inhibition of axonal regeneration.

## Pep2-41: 2-41 fragment of the 66 amino acid region of Nogo, acetylated and amidated at the termini (Ac-RIYKGVIQAIQKSDEGHPFRAYLESEVAISEELVQKYSNS-NH2)
[1]; binding of 10 nM AP-Nogo, read-out: apparent Ki in the binding assay
  Ki: 150 nM
[2]
  blockade of CNS myelin induced neurite outgrowth inhibition (in words): can reverse the inhibition of neurite outgrowth
[2]; listed as 2-41 fragment
  blockade of CNS myelin induced neurite outgrowth inhibition (in words): blocks

## Peptide 140: synthetic peptide of amino acids #1055-1094 of the human NogoA protein, acetylated and amidated at the termini (Ac-RIYKGVIQAIQKSDEGHPFRAYLESEVAISEELVQKYSNS-NH2; UniProt Q9NQC3 1055-1094, looked up, fragment)
[2]
  blockade of CNS myelin induced neurite outgrowth inhibition (in words): partial neutralization
[2]; bound CNS myelin
  concentration at which maximal activity is obtained: approximately 250 nM
[2]; following treatment with Peptide 140, E12 chick DRG
  neurite outgrowth on a 20 ng spot of myelin (as compared with control outgrowth): 65%

B1: NgR-ecto: secreted fragment of amino acid residues 1-348 of the murine NgR, in HEK293T conditioned medium (protein)
chain: CPGACVCYNEPKVTTSCPQQGLQAVPTGIPASSQRIFLHGNRISHVPAASFQSCRNLTILWLHSNALARIDAAAFTGLTLLEQLDLSDNAQLHVVDPTTFHGLGHLHTLHLDRCGLRELGPGLFRGLAALQYLYLQDNNLQALPDNTFRDLGNLTHLFLHGNRIPSVPEHAFRGLHSLDRLLLHQNHVARVHPHAFRDLGRLMTLYLFANNLSMLPAEVLMPLRSLQYLRLNDNPWVCDCRARPLWAWLQKFRGSSSEVPCNLPQRLADRDLKRLAASDLEGCAVASGPFRPIQTSQLTDEELLSLPKCCQPDAADKASVLE
modifications: left off: small tags and cut ends
notes: secreted fragment of amino acid residues 1-348 of the murine NgR, in HEK293T conditioned medium
[1]; 0.5 nM AP-Nogo-66, NgR-ecto conditioned medium, dorsal root ganglion neurons
  reduction of binding of AP-Nogo-66: 80%
[2]
  blockade of CNS myelin induced neurite outgrowth inhibition (in words): blocks the ability of CNS myelin to inhibit axonal outgrowth
[2]; listed as NgR ectodomain protein
  blockade of CNS myelin induced neurite outgrowth inhibition (in words): blocked
[2]; listed as NgREcto
  blockade of CNS myelin induced neurite outgrowth inhibition (in words): partially reversed
[2]; listed as mNgR ectodomain protein
  blockade of CNS myelin induced neurite outgrowth inhibition (in words): blocked

B2: GST-Nogo: GST fusion protein of the 66 amino acid lumenal-extracellular fragment of Nogo-A, expressed in E. coli (protein)
chain: RIYKGVIQAIQKSDEGHPFRAYLESEVAISEELVQKYSNSALGHVNCTIKELRRLFLVDDLVDSLK
modifications: also: GST fusion protein
notes: GST fusion protein of the 66 amino acid lumenal-extracellular fragment of Nogo-A, expressed in E. coli
[1]
  blockade of AP-Nogo binding (in words): blocked; also recorded: displaced
